Reference: patent US20260070917A1, “CYCLIN DEPENDENT KINASE DEGRADERS AND METHODS OF USE THEREOF” (Differentiated Therapeutics Inc, priority 2023, published 2026)

Assays:
Type in all cases: cell-based
[1] = target: T1, CDK2 (Homo sapiens, UniProt P24941); assay: HiBit Assay Protocol for CDK2 (HIBIT protein quantification, degradation); settings: HEK293-CDK2-Hibit cells, compound treatment for 6 hours; for DC50: ABS DC50
T1 construct: host or cells: HEK293-CDK2-Hibit
How it was run: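 HEK293 cells expressing HiBiT-tagged CDK2 were seeded overnight, then treated 6 h with a 3-fold, 10-point compound dilution series. CDK2 levels were read as luminescence after lytic HiBiT/LgBiT detection, normalised to DMSO-only and medium-only controls, and DC50 derived by curve fitting.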

[2] = target: T2, CCNE1 (Homo sapiens, UniProt P24864); assay: HiBit Assay Protocol for CCNE1 (HIBIT protein quantification, degradation); settings: HEK293-CCNE1-Hibit cells, compound treatment for 6 hours
T2 construct: host or cells: HEK293-CCNE1-Hibit
T2 sequence (P24864 whole entry): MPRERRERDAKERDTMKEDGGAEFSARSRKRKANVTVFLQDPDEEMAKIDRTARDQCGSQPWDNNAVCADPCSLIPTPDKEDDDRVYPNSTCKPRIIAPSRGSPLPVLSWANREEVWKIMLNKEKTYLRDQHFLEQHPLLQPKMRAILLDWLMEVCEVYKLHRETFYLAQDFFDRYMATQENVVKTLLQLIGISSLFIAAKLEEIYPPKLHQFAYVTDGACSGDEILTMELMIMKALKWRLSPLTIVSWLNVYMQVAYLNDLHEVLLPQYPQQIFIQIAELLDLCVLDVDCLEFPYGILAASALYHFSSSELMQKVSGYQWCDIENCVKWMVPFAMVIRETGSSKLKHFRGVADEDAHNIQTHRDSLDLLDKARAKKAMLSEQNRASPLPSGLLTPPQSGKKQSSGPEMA
How it was run: (§1)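 HEK293 cells expressing HiBiT-tagged CCNE1 were seeded overnight, then treated 6 h with a 3-fold, 10-point compound dilution series. HiBiT levels were read by lytic LgBiT luminescence and normalised to DMSO-only (high) and medium-only (low) controls. DC50 was derived by curve fitting.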

[3] = target: T3, CCNE1 (Homo sapiens, UniProt P24864+P24941); assay: as above; settings: HEK293-CCNE1-Hibit cells, compound treatment for 6 hours, ABS DC50
T3 construct: host or cells: HEK293-CCNE1-Hibit
T3 sequence (P24864 whole entry, one chain of several): as the sequence (P24864 whole entry) above
How it was run: as §1

[4] = target: T4, CDK9 (Homo sapiens, UniProt P50750); assay: HiBit Assay Protocol for CDK9 (HIBIT protein quantification, degradation); settings: HEK293-CDK9-Hibit cells, compound treatment for 6 hours; for Dmax: 6 h, read-out: CDK9 HIBIT Protein Quantification Maximum
T4 construct: host or cells: HEK293-CDK9-Hibit
T4 sequence (P50750 whole entry): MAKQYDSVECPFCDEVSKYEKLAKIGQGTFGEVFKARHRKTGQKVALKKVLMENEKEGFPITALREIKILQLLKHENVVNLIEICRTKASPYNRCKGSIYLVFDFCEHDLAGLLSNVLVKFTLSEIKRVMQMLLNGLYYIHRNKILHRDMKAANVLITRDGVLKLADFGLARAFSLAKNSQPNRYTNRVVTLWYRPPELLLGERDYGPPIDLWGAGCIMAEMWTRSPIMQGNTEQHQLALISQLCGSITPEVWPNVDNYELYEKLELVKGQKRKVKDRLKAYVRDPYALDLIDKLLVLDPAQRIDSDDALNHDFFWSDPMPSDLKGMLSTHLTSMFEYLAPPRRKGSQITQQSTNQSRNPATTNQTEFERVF
How it was run: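 HEK293 cells carrying HiBiT-tagged CDK9 treated 6 h with compounds in a 3-fold, 10-point dilution series. CDK9 level read by lytic Nano-Glo HiBiT/LgBiT luminescence and normalized to 0.1% DMSO (high) and medium-only (low) controls. DC50 from curve fitting.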

Compound	CDK2 HIBIT Protein Quantification Maximum [1] [%]	DC50 [1] [nM]	CCNE1 HIBIT Protein Quantification Maximum [2] [%]	DC50 [3] [nM]	Dmax [4] [%]	DC50 ([4]; ABS DC50) [nM]
CN(CCCN1CCC(c2cccc3c2n(C)c(=O)n3C2CCC(=O)NC2=O)CC1)S(=O)(=O)N1CCC(Nc2ncc3c(n2)N([C@@H]2CCC[C@@H](O)C2)C(=O)C32CC2)CC1 (stereo partly drawn) [Compound 131, N-(3-{4-[1-(2,6-Dioxopiperidin-3-yl)-3-methyl-2-oxo-1,3-benzodiazol-4-yl]piperidin-1-yl}propyl)-4-{7′-[(1R,3R)-3-hydroxycyclohexyl]-6′-oxospiro[cyclopropane-1,5′-pyrrolo[2,3-d]pyrimidin]-2′-ylamino}-N-methylpiperidine-1-sulfonamide]	83	21.9	63	19.9	56	69.2
C[C@H](c1cccc(S(=O)(=O)N2CCC(Nc3ncc4c(n3)N([C@@H]3CCC[C@@H](O)C3)C(=O)C43CC3)CC2)c1)N1CCC(c2ccc3c(N4CCC(=O)NC4=O)nn(C)c3c2)CC1 [Compound 151, 1-(6-{1-[(1R)-1-[3-(4-{7′-[(1R,3R)-3-hydroxycyclohexyl]-6′-oxospiro[cyclopropane-1,5′-pyrrolo[2,3-d]pyrimidin]-2′-ylamino}piperidin-1-ylsulfonyl)phenyl]ethyl]piperidin-4-yl}-1-methylindazol-3-yl)-1,3-diazinane-2,4-dione]	80	3.31	69	78.5	3	–
Cn1nc(N2CCC(=O)NC2=O)c2ccc(C3CCN(Cc4cccc(S(=O)(=O)N5CC[C@@H](Nc6ncc7c(n6)N([C@@H]6CCC[C@@H](O)C6)C(=O)C76CC6)[C@H](F)C5)c4)CC3)cc21 [Compound 158]	80	2.64	56	5.96	13	–
Cc1c(CN2CCC(c3ccc4c(N5CCC(=O)NC5=O)nn(C)c4c3)CC2)cccc1S(=O)(=O)N1CCC(Nc2ncc3c(n2)N([C@@H]2CCC[C@@H](O)C2)C(=O)C32CC2)CC1 [Compound 159, 1-[6-(1-{[3-(4-{7′-[(1R,3R)-3-Hydroxycyclohexyl]-6′-oxospiro [cyclopropane-1,5′-pyrrolo[2,3-d]pyrimidin]-2′-ylamino}piperidin-1-ylsulfonyl)-2-methylphenyl]methyl}piperidin-4-yl)-1-methylindazol-3-yl]-1,3-diazinane-2,4-dione]	68	2.83	54	5.99	49	–
C[C@@H](C1CC1)N1C(=O)C2(CC2)c2cnc(NC3CCN(S(=O)(=O)c4cccc(CN5CCC(c6ccc7c(N8CCC(=O)NC8=O)nn(C)c7c6)CC5)c4)CC3)nc21 [Compound 164, 1-[6-(1-{[3-(4-{7′-[(1S)-1-Cyclopropylethyl]-6′-oxospiro[cyclopropane-1,5′-pyrrolo[2,3-d]pyrimidin]-2′-ylamino}piperidin-1-ylsulfonyl)phenyl]methyl}piperidin-4-yl)-1-methylindazol-3-yl]-1,3-diazinane-2,4-dione]	85	2.63	54	6.18	12	–
CC1CN(Cc2cccc(S(=O)(=O)N3CCC(Nc4ncc5c(n4)N([C@@H]4CCC[C@@H](O)C4)C(=O)C54CC4)CC3)c2)CCC1c1ccc2c(N3CCC(=O)NC3=O)nn(C)c2c1 (stereo partly drawn) [Compound 182, 1-[6-(1-{[3-(4-{7′-[(1R,3R)-3-Hydroxycyclohexyl]-6′-oxospiro[cyclopropane-1,5′-pyrrolo[2,3-d]pyrimidin]-2′-ylamino}piperidin-1-ylsulfonyl)phenyl]methyl}-3-methylpiperidin-4-yl)-1-methylindazol-3-yl]-1,3-diazinane-2,4-dione]	82	4.8	52	8.09	46	–
